Converted amounts (≈) assume the structure as drawn.
Assays:
[1] = Human liver microsomal Clint; format: in vitro ADME; conditions: for microsomal CLint: read-out: HLM Clint
[2] = Log D7.4 shake-flask octanol-water; format: physicochemical; conditions: pH 7.4
adult S. mansoni = assay: Phenotypic screen of adult S. mansoni worms, severity scores and descriptors; format: cell-based, Schistosoma mansoni; conditions: for Severity Scores (10 μM) 1 h / Severity Scores (10 μM) 5 h / Severity Scores (10 μM) 24 h / Severity Scores (10 μM) 48 h / Descriptors (10 µM) 1 h / Descriptors (10 µM) 5 h / Descriptors (10 µM) 24 h / Descriptors (10 µM) 48 h: adult S. mansoni; for Severity Scores (10 μM) 1 h / Severity Scores (10 μM) 5 h / Severity Scores (10 μM) 24 h / Severity Scores (10 μM) 48 h: scale 0 (no activity) to 4 (maximal activity); for bioactivity against adult S. mansoni: adult schistosomes; for Severity Scores (10 μM) 1 h / Severity Scores (10 μM) 5 h / Severity Scores (10 μM) 24 h / Severity Scores (10 μM) 48 h / bioactivity against adult S. mansoni: 10 μM; for Descriptors (10 µM) 1 h / Descriptors (10 µM) 5 h / Descriptors (10 µM) 24 h / Descriptors (10 µM) 48 h: phenotypic descriptors
How it was run: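 Adult S. mansoni (NMRI isolate, ≥42 days old) were co-incubated with compounds and changes in motility, density, shape and adherence recorded visually over time and concentration. Descriptors converted to severity scores from 0 (no activity) to 4 (maximal).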

Rat hepatocyte Clint = format: in vitro ADME; conditions: rat hepatocytes, intrinsic clearance; for hepatocyte CLint: read-out: RH CLint
[3] = Human plasma protein binding (equilibrium dialysis); format: in vitro ADME; conditions: read-out: human PPB (plasma protein binding) (converted); for fraction unbound at 10 µM: pH 7.4, 37 °C
[4] = Aqueous pH 7.4 solubility; format: physicochemical; conditions: for solubility: aqueous buffer, thermodynamic from solid, phosphate buffer pH 7.4, 25 °C, 20-24 h, read-out: aq sol (aqueous solubility)
[5] = human liver microsomes, intrinsic clearance

clearance increase compared to 8a ([1]; relative to 8a)	logD [2]	hepatocyte CLint (Rat hepatocyte Clint)	fraction unbound ([3]; pH 7.4, 10 µM, 37 °C)	improvement in solubility compared to 8a ([4]; relative to 8a)	microsomal CLint [1, 5]	fraction unbound at 10 µM [3]	solubility [4]	HLM Clint [1, 5]	RH CLint (Rat hepatocyte Clint)	SMILES	Severity Scores (10 μM) 1 h (adult S. mansoni)	Severity Scores (10 μM) 5 h (adult S. mansoni)	Severity Scores (10 μM) 24 h (adult S. mansoni)	Severity Scores (10 μM) 48 h (adult S. mansoni)	bioactivity against adult S. mansoni (adult S. mansoni)	Descriptors (10 µM) 1 h (adult S. mansoni)	Descriptors (10 µM) 5 h (adult S. mansoni)	Descriptors (10 µM) 24 h (adult S. mansoni)	Descriptors (10 µM) 48 h (adult S. mansoni)
2 fold	2.5	42 µL/min/1e6 cells	0.18	> 33,500 fold						Cc1cc2c(Nc3cnccn3)ccnc2cc1-c1cnc(N2CCCN(C)CC2)nc1 [8b]	4	4	4	4	severe phenotypic response recorded after 1 h				
	3.6	4.4 µL/min/1e6 cells			59 µL/min/mg	< 0.01	0.6 µM (≈ 0.263 µg/mL)			COc1ccc(NC(=O)c2ccc(-c3cccc(N4CCOCC4)c3)cc2N)cc1Cl [7e]	0	0	2	2	bioactivity after 24 h	none	none	S, on sides	
	2.2	82 µL/min/1e6 cells			74 µL/min/mg	0.34	930 µM (≈ 384 µg/mL)			CN1CCCN(c2ncc(-c3ccc4c(Nc5ccncn5)ccnc4c3)cn2)CC1 [5c]	0	0	0	0	complete loss in activity	none	none	none	none
	4.4	15 µL/min/1e6 cells			300 µL/min/mg	0.01	0.3 µM (≈ 0.161 µg/mL)			COc1ccc(Nc2ccnc3cc(-c4ccc(S(=O)(=O)N5CCCN(C)CC5)cc4)ccc23)cc1Cl [5e]	0	0	0	0	complete loss of bioactivity	none	none	none	none
						< 0.01	< 1 µM	63 μL/min/mg protein	44 µL/min/10^6 cells	Fc1cccc(COc2ccc(Nc3ncnc4ccc(-c5cccc(N6CCOCC6)c5)cc34)cc2Cl)c1 [compound 2]									
	4.5	30 µL/min/1e6 cells			300 µL/min/mg	< 0.01	4 µM (≈ 2.03 µg/mL)			CN1CCCN(S(=O)(=O)c2ccc(-c3ccc4c(Nc5ccc(Cl)cn5)ccnc4c3)cc2)CC1 [5f]	2	2	2	2	moderate bioactivity recorded after 1 h		S, on sides	Dark, S	Dark, S
	4.7	300 µL/min/1e6 cells			12 µL/min/mg	< 0.01	0.1 µM (≈ 0.0439 µg/mL)			COc1ccc(NC(=O)c2ccc(-c3cccc(N4CCOCC4)c3)cc2O)cc1Cl [7d]	2	2	3	4	phenotypic response after 1 h which increased in severity over time	S, on sides	S, on sides	S, on sides, dark	
